In patent US10487068B2, “Pyridazine derivatives as RORc modulators” (Genentech, Inc., priority 2015, dated 2019):

Molecular target: T1, RORc ligand binding domain (Homo sapiens, UniProt P51449)
T1 sequence (P51449 269-508 limits assumed): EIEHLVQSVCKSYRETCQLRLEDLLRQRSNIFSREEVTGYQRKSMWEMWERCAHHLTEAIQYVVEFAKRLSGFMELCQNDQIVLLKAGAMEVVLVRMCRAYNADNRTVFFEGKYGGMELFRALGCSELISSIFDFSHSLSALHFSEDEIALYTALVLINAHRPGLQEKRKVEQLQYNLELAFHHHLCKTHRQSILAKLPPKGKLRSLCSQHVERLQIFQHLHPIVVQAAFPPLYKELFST
Test: In Vitro RORc Ligand Binding Assay
Settings: RORc IC50, radioligand 25-[3H]hydroxycholesterol 6 nM; 0.6 ug/mL RORc receptor; 3 h at 25° C.

Structure (SMILES) | IC50 [nM]
CC(C)(O)c1coc(-c2cncc([C@]34CC[C@H](c5cc(-c6c(F)cccc6F)nnc53)C4(C)C)n2)n1 [Example 387, 2-(2-(6-((5S,8R)-3-(2,6-difluorophenyl)-9,9-dimethyl-5,6,7,8-tetrahydro-5,8-methanocinnolin-8-yl)pyrazin-2-yl)oxazol-4-yl)propan-2-ol] | 8
Cc1ncnn1-c1cc([C@@]23CC[C@@H](c4cc(-c5c(F)cccc5F)nnc42)C3(C)C)cnn1 [Example 390, (5R,8S)-3-(2,6-difluorophenyl)-9,9-dimethyl-8-(6-(5-methyl-1H-1,2,4-triazol-1-yl)pyridazin-4-yl)-5,6,7,8-tetrahydro-5,8-methanocinnoline] | 317
CC(C)(O)c1ccc(-c2cncc([C@@]34CC[C@@H](c5cc(-c6c(F)cccc6F)nnc53)C4(C)C)n2)cn1 [Example 392, 2-(5-(6-((5R,8S)-3-(2,6-difluorophenyl)-9,9-dimethyl-5,6,7,8-tetrahydro-5,8-methanocinnolin-8-yl)pyrazin-2-yl)pyridin-2-yl)propan-2-ol] | 5.5
CC(C)(O)c1cc(-c2cncc([C@@]34CC[C@@H](c5cc(-c6c(F)cccc6F)nnc53)C4(C)C)n2)ccn1 [Example 393, 2-(4-(6-((5R,8S)-3-(2,6-difluorophenyl)-9,9-dimethyl-5,6,7,8-tetrahydro-5,8-methanocinnolin-8-yl)pyrazin-2-yl)pyridin-2-yl)propan-2-ol] | 5.6
CC(C)(O)c1ncc(-c2cncc([C@@]34CC[C@@H](c5cc(-c6c(F)cccc6F)nnc53)C4(C)C)n2)cn1 [Example 394, 2-(5-(6-((5R,8S)-3-(2,6-difluorophenyl)-9,9-dimethyl-5,6,7,8-tetrahydro-5,8-methanocinnolin-8-yl)pyrazin-2-yl)pyrimidin-2-yl)propan-2-ol] | 9.1
CC(C)(O)c1coc(-c2cncc([C@@]34CC[C@@H](c5cc(-c6ccccc6F)nnc53)C4(C)C)n2)n1 [Example 396, 2-(2-(6-((5R,8S)-3-(2-fluorophenyl)-9,9-dimethyl-5,6,7,8-tetrahydro-5,8-methanocinnolin-8-yl)pyrazin-2-yl)oxazol-4-yl)propan-2-ol] | 4.8
Cc1oc(-c2cncc([C@@]34CC[C@@H](c5cc(-c6c(F)cccc6F)nnc53)C4(C)C)n2)nc1C(C)(C)O [Example 397, 2-(2-(6-((5R,8S)-3-(2,6-difluorophenyl)-9,9-dimethyl-5,6,7,8-tetrahydro-5,8-methanocinnolin-8-yl)pyrazin-2-yl)-5-methyloxazol-4-yl)propan-2-ol] | 10.4
CC1(C)[C@H]2CC[C@]1(c1cncc(-c3cn[nH]n3)n1)c1nnc(-c3c(F)cccc3F)cc12 [Example 399] | 6.4
CC(C)(O)c1cnc(-c2cncc([C@@]34CC[C@@H](c5cc(-c6c(F)cccc6F)nnc53)C4(C)C)n2)cn1 [Example 400, 2-(6′-((5R,8S)-3-(2,6-difluorophenyl)-9,9-dimethyl-5,6,7,8-tetrahydro-5,8-methanocinnolin-8-yl)-[2,2′-bipyrazin]-5-yl)propan-2-ol] | 8.7
CC1(C)[C@H]2CC[C@]1(c1cncc(-c3cnc(=O)[nH]c3)n1)c1nnc(-c3c(F)cccc3F)cc12 [Example 401, 5-(6-((5R,8S)-3-(2,6-difluorophenyl)-9,9-dimethyl-5,6,7,8-tetrahydro-5,8-methanocinnolin-8-yl)pyrazin-2-yl)pyrimidin-2(1H)-one] | 14.7
CC1(C)[C@H]2CC[C@]1(c1cncc(-c3ccc(OCC(N)=O)nc3)n1)c1nnc(-c3c(F)cccc3F)cc12 [Example 402, 2-((5-(6-((5R,8S)-3-(2,6-difluorophenyl)-9,9-dimethyl-5,6,7,8-tetrahydro-5,8-methanocinnolin-8-yl)pyrazin-2-yl)pyridin-2-yl)oxy)acetamide] | 8.1
CC1(C)[C@H]2CC[C@]1(c1ccnc(-c3ccc(N)nc3)n1)c1nnc(-c3c(F)cccc3F)cc12 [Example 403] | 6.8
CC1(C)[C@H]2CC[C@]1(c1ccnc(-c3ccnc(C(N)=O)c3)n1)c1nnc(-c3c(F)cccc3F)cc12 [Example 404] | 9.2
CC1(C)[C@H]2CC[C@]1(c1cncc(-c3cnn(CC(N)=O)c3)n1)c1nnc(-c3c(F)cccc3F)cc12 [Example 405, 2-(4-(6-((5R,8S)-3-(2,6-difluorophenyl)-9,9-dimethyl-5,6,7,8-tetrahydro-5,8-methanocinnolin-8-yl)pyrazin-2-yl)-1H-pyrazol-1-yl)acetamide] | 7.7
CC(C)(O)Cn1cc(-c2cncc([C@@]34CC[C@@H](c5cc(-c6c(F)cccc6F)nnc53)C4(C)C)n2)cn1 [Example 406, 1-(4-(6-((5R,8S)-3-(2,6-difluorophenyl)-9,9-dimethyl-5,6,7,8-tetrahydro-5,8-methanocinnolin-8-yl)pyrazin-2-yl)-1H-pyrazol-1-yl)-2-methylpropan-2-ol] | 7.6
CC1(C)[C@H]2CC[C@]1(c1ccnc(-c3cnc(=O)[nH]c3)n1)c1nnc(-c3c(F)cccc3F)cc12 [Example 409] | 7.8
CC1(C)[C@H]2CC[C@]1(c1cncc(-c3ccnc(OCC(N)=O)c3)n1)c1nnc(-c3c(F)cccc3F)cc12 [Example 410, 2-((4-(6-((5R,8S)-3-(2,6-difluorophenyl)-9,9-dimethyl-5,6,7,8-tetrahydro-5,8-methanocinnolin-8-yl)pyrazin-2-yl)pyridin-2-yl)oxy)acetamide] | 6.3
CC1(C)[C@H]2CC[C@]1(c1ccnc(-c3ccc(NS(C)(=O)=O)nc3)n1)c1nnc(-c3c(F)cccc3F)cc12 [Example 414, N-(5-(4-((5R,8S)-3-(2,6-difluorophenyl)-9,9-dimthyl-5,6,7,8-tetrahydro-5,8-methanocinnolin-8-yl)pyrimidin-2-yl)pyridin-2-yl)methanesulfonamide] | 9.8
CC(C)(O)c1cnc(-c2nccc([C@@]34CC[C@@H](c5cc(-c6c(F)cccc6F)nnc53)C4(C)C)n2)cn1 [Example 415] | 22
C[C@H](O)Cn1ccc(-c2cncc([C@@]34CC[C@@H](c5cc(-c6c(F)cccc6F)nnc53)C4(C)C)n2)n1 [Example 417, (S)-1-(3-(6-((5R,8S)-3-(2,6-difluorophenyl)-9,9-dimethyl-5,6,7,8-tetrahydro-5,8-methanocinnolin-8-yl)pyrazin-2-yl)-1H-pyrazol-1-yl)propan-2-ol] | 5.6
CC1(C)[C@H]2CC[C@]1(c1cncc(-c3ccc(N)nc3)n1)c1nnc(-c3c(F)cccc3F)cc12 [Example 419, 5-(6-((5R,8S)-3-(2,6-difluorophenyl)-9,9-dimethyl-5,6,7,8-tetrahydro-5,8-methanocinnolin-8-yl)pyrazin-2-yl)pyridin-2-amine] | 10.1

The remaining compounds from weak to strong by IC50, led by results:

IC50 [nM] | Structure (SMILES)
91.2 | Cc1ncn(-c2cc([C@@]34CC[C@@H](c5cc(-c6c(F)cccc6F)nnc53)C4(C)C)cnn2)n1 [Example 389, (5R,8S)-3-(2,6-difluorophenyl)-9,9-dimethyl-8-(6-(3-methyl-1H-1,2,4-triazol-1-yl)pyridazin-4-yl)-5,6,7,8-tetrahydro-5,8-methanocinnoline]
44.6 | Cc1cc([C@@]23CC[C@@H](c4cc(-c5c(F)cccc5F)nnc42)C3(C)C)nc(N)n1 [Example 391]
12.5 | CC1(C)[C@H]2CC[C@]1(c1cncc(C3(O)COC3)n1)c1nnc(-c3c(F)cccc3F)cc12 [Example 398, 3-(6-((5R,8S)-3-(2,6-difluorophenyl)-9,9-dimethyl-5,6,7,8-tetrahydro-5,8-methanocinnolin-8-yl)pyrazin-2-yl)oxetan-3-ol]
11 | CC1(C)[C@H]2CC[C@]1(c1nccc(-n3ccnc3)n1)c1nnc(-c3c(F)cccc3F)cc12 [Example 408, (5R,8R)-8-(4-(1H-imidazol-1-yl)pyrimidin-2-yl)-3-(2,6-difluorophenyl)-9,9-dimethyl-5,6,7,8-tetrahydro-5,8-methanocinnoline]
10.5 | C[C@@H](O)C(=O)Nc1ccc(-c2nccc([C@@]34CC[C@@H](c5cc(-c6c(F)cccc6F)nnc53)C4(C)C)n2)cn1 [Example 418]
9.2 | CC1(C)[C@H]2CC[C@]1(c1cncc(-c3ccc(OCCO)nc3)n1)c1nnc(-c3c(F)cccc3F)cc12 [Example 420, 2-((5-(6-((5R,8S)-3-(2,6-difluorophenyl)-9,9-dimethyl-5,6,7,8-tetrahydro-5,8-methanocinnolin-8-yl)pyrazin-2-yl)pyridin-2-yl)oxy)ethanol]
8.8 | CC1(C)[C@H]2CC[C@]1(c1cncc(-c3ccn(CC(N)=O)n3)n1)c1nnc(-c3c(F)cccc3F)cc12 [Example 411, 2-(3-(6-((5R,8S)-3-(2,6-difluorophenyl)-9,9-dimethyl-5,6,7,8-tetrahydro-5,8-methanocinnolin-8-yl)pyrazin-2-yl)-1H-pyrazol-1-yl)acetamide]
7.6 | CC(C)(O)Cn1ccc(-c2cncc([C@@]34CC[C@@H](c5cc(-c6c(F)cccc6F)nnc53)C4(C)C)n2)n1 [Example 407, 1-(3-(6-((5R,8S)-3-(2,6-difluorophenyl)-9,9-dimethyl-5,6,7,8-tetrahydro-5,8-methanocinnolin-8-yl)pyrazin-2-yl)-1H-pyrazol-1-yl)-2-methylpropan-2-ol]
7.3 | CC(C)(O)c1ncc(-c2nccc([C@@]34CC[C@@H](c5cc(-c6c(F)cccc6F)nnc53)C4(C)C)n2)cn1 [Example 388]
7.1 | CC1(C)[C@H]2CC[C@]1(c1ccnc(-c3ccnc(CO)c3)n1)c1nnc(-c3c(F)cccc3F)cc12 [Example 412]
5 | CC1(C)[C@H]2CC[C@]1(c1cncc(-c3ccc(CS(C)(=O)=O)nc3)n1)c1nnc(-c3c(F)cccc3F)cc12 [Example 413]
4.3 | CC1(C)[C@H]2CC[C@]1(c1cncc(-c3ccc(=O)[nH]c3)n1)c1nnc(-c3c(F)cccc3F)cc12 [Example 395, 5-(6-((5R,8S)-3-(2,6-difluorophenyl)-9,9-dimethyl-5,6,7,8-tetrahydro-5,8-methanocinnolin-8-yl)pyrazin-2-yl)pyridin-2(1H)-one]
